Assay results published in ChEMBL document CHEMBL1201862, “PubChem BioAssay data set” (2004).
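Tested at 5 concentrations; 48 h exposure; 96-well plates; endpoints linearly interpolated, else capped at highest concentration. Abbreviation: GI50, concentration required for 50% inhibition of growth.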 Calls of active or inactive are those of the source. Rule as the data show it: active = GI50 up to about 1.1 µM and inactive = higher.

Tests used:
Experiment in all cases: NCI tumour cell line growth inhibition, 48 h
786-0 = tested on: 786-0
A498 = tested on: A498
A549 = tested on: A549
ACHN = tested on: ACHN
BT-549 = tested on: BT-549
CAKI-1 = tested on: CAKI-1
CCRF-CEM = tested on: CCRF-CEM
COLO 205 = tested on: COLO 205
DU-145 = tested on: DU-145
EKVX = tested on: EKVX
HCC 2998 = tested on: HCC 2998
HCT-116 = tested on: HCT-116
HCT-15 = tested on: HCT-15
HL-60 = tested on: HL-60
HOP-62 = tested on: HOP-62
HOP-92 = tested on: HOP-92
HT-29 = tested on: HT-29
Hs-578T = tested on: Hs-578T
IGROV-1 = tested on: IGROV-1
K562 = tested on: K562
KM12 = tested on: KM12
LOX IMVI = tested on: LOX IMVI
M14 = tested on: M14
MCF7 = tested on: MCF7
MDA-MB-231 = tested on: MDA-MB-231
MDA-MB-435 = tested on: MDA-MB-435
MDA-N = tested on: MDA-N
MOLT-4 = tested on: MOLT-4
Malme-3M = tested on: Malme-3M
NCI-H23 = tested on: NCI-H23
NCI-H460 = tested on: NCI-H460
NCI-H522 = tested on: NCI-H522
NCI/ADR-RES = tested on: NCI/ADR-RES
OVCAR-3 = tested on: OVCAR-3
OVCAR-4 = tested on: OVCAR-4
OVCAR-5 = tested on: OVCAR-5
OVCAR-8 = tested on: OVCAR-8
PC-3 = tested on: PC-3
RPMI-8226 = tested on: RPMI-8226
SF-268 = tested on: SF-268
SF-295 = tested on: SF-295
SF-539 = tested on: SF-539
SK-MEL-28 = tested on: SK-MEL-28
SK-MEL-2 = tested on: SK-MEL-2
SK-MEL-5 = tested on: SK-MEL-5
SN12C = tested on: SN12C
SNB-19 = tested on: SNB-19
SNB-75 = tested on: SNB-75
SR = tested on: SR
SW-620 = tested on: SW-620
T47D = tested on: T47D
TK-10 = tested on: TK-10
U-251 = tested on: U-251
UACC-257 = tested on: UACC-257
UACC-62 = tested on: UACC-62
UO-31 = tested on: UO-31
NCI-H226 = tested on: NCI-H226
SK-OV-3 = tested on: SK-OV-3
RXF 393 = tested on: RXF 393

Compound: COc1ccc(OCc2ccc3nc(-c4ccccc4)c(Cl)nc3c2)cc1
- GI50 (786-0): 10.6 µM (inactive)
- GI50 (A498): 26.4 µM (inactive)
- GI50 (A549): 40 µM (inactive)
- GI50 (ACHN): 27.9 µM (inactive)
- GI50 (BT-549): 0.018 µM (active)
- GI50 (CAKI-1): 22.3 µM (inactive)
- GI50 (CCRF-CEM): 15.8 µM (inactive)
- GI50 (COLO 205): 16.6 µM (inactive)
- GI50 (DU-145): > 100 µM (inactive)
- GI50 (EKVX): 50.5 µM (inactive)
- GI50 (HCC 2998): 27.7 µM (inactive)
- GI50 (HCT-116): 19.2 µM (inactive)
- GI50 (HCT-15): 50.7 µM
- GI50 (HL-60): 12.3 µM (inactive)
- GI50 (HOP-62): 14.2 µM (inactive)
- GI50 (HOP-92): 14.5 µM (inactive)
- GI50 (HT-29): 76.7 µM (inactive)
- GI50 (Hs-578T): 23.4 µM (inactive)
- GI50 (IGROV-1): 38 µM (inactive)
- GI50 (K562): 0.0889 µM (active)
- GI50 (KM12): > 100 µM (inactive)
- GI50 (LOX IMVI): 84.5 µM (inactive)
- GI50 (M14): 33.9 µM (inactive)
- GI50 (MCF7): 37.6 µM (inactive)
- GI50 (MDA-MB-231): 11.7 µM (inactive)
- GI50 (MDA-MB-435): 50.6 µM (inactive)
- GI50 (MDA-N): 52.7 µM (inactive)
- GI50 (MOLT-4): 34.4 µM (inactive)
- GI50 (Malme-3M): 12.9 µM (inactive)
- GI50 (NCI-H23): 19 µM (inactive)
- GI50 (NCI-H460): 16.7 µM (inactive)
- GI50 (NCI-H522): 10.7 µM (inactive)
- GI50 (NCI/ADR-RES): 40.3 µM (inactive)
- GI50 (OVCAR-3): 84.3 µM (inactive)
- GI50 (OVCAR-4): 19.4 µM (inactive)
- GI50 (OVCAR-5): 32.1 µM (inactive)
- GI50 (OVCAR-8): 44.7 µM (inactive)
- GI50 (PC-3): 40.9 µM (inactive)
- GI50 (RPMI-8226): 9.93 µM (inactive)
- GI50 (SF-268): 25.2 µM (inactive)
- GI50 (SF-295): 21.7 µM (inactive)
- GI50 (SF-539): 12.9 µM (inactive)
- GI50 (SK-MEL-28): 47.3 µM (inactive)
- GI50 (SK-MEL-2): 26.9 µM (inactive)
- GI50 (SK-MEL-5): 6.89 µM (inactive)
- GI50 (SN12C): 24.3 µM (inactive)
- GI50 (SNB-19): 26.5 µM (inactive)
- GI50 (SNB-75): 36 µM (inactive)
- GI50 (SR): 28.2 µM (inactive)
- GI50 (SW-620): 43.2 µM (inactive)
- GI50 (T47D): 45 µM (inactive)
- GI50 (TK-10): 17.7 µM (inactive)
- GI50 (U-251): 12.3 µM (inactive)
- GI50 (UACC-257): > 100 µM (inactive)
- GI50 (UACC-62): > 10 µM (inactive)
- GI50 (UO-31): 62.8 µM (inactive)

Compound: Cc1cc2nnc(C(N)=O)c(N)c2cc1C
- GI50 (786-0): 29.1 µM (inactive)
- GI50 (A498): > 100 µM (inactive)
- GI50 (A549): > 100 µM (inactive)
- GI50 (ACHN): > 100 µM (inactive)
- GI50 (BT-549): > 100 µM (inactive)
- GI50 (CAKI-1): > 100 µM (inactive)
- GI50 (CCRF-CEM): > 100 µM (inactive)
- GI50 (COLO 205): > 100 µM (inactive)
- GI50 (DU-145): > 100 µM (inactive)
- GI50 (EKVX): > 100 µM (inactive)
- GI50 (HCC 2998): > 100 µM (inactive)
- GI50 (HCT-116): > 100 µM (inactive)
- GI50 (HCT-15): > 100 µM
- GI50 (HL-60): > 100 µM (inactive)
- GI50 (HOP-62): 39.8 µM (inactive)
- GI50 (HOP-92): 26.2 µM (inactive)
- GI50 (HT-29): > 100 µM (inactive)
- GI50 (Hs-578T): 30.5 µM (inactive)
- GI50 (IGROV-1): > 100 µM (inactive)
- GI50 (K562): > 100 µM (inactive)
- GI50 (KM12): > 100 µM (inactive)
- GI50 (LOX IMVI): > 100 µM (inactive)
- GI50 (M14): > 100 µM (inactive)
- GI50 (MCF7): > 100 µM (inactive)
- GI50 (MDA-MB-231): > 100 µM (inactive)
- GI50 (MDA-MB-435): > 100 µM (inactive)
- GI50 (MDA-N): > 100 µM (inactive)
- GI50 (MOLT-4): > 100 µM (inactive)
- GI50 (Malme-3M): 38.4 µM (inactive)
- GI50 (NCI-H226): > 100 µM (inactive)
- GI50 (NCI-H23): > 100 µM (inactive)
- GI50 (NCI-H460): > 100 µM (inactive)
- GI50 (NCI-H522): 20 µM (inactive)
- GI50 (NCI/ADR-RES): > 100 µM (inactive)
- GI50 (OVCAR-3): > 100 µM (inactive)
- GI50 (OVCAR-4): > 100 µM (inactive)
- GI50 (OVCAR-5): > 100 µM (inactive)
- GI50 (OVCAR-8): 47.8 µM (inactive)
- GI50 (PC-3): > 100 µM (inactive)
- GI50 (RPMI-8226): > 100 µM (inactive)
- GI50 (SF-268): 30.1 µM (inactive)
- GI50 (SF-295): > 100 µM (inactive)
- GI50 (SF-539): > 100 µM (inactive)
- GI50 (SK-MEL-2): 64.7 µM (inactive)
- GI50 (SK-MEL-5): > 100 µM (inactive)
- GI50 (SK-OV-3): 42.1 µM (inactive)
- GI50 (SN12C): > 100 µM (inactive)
- GI50 (SNB-19): > 100 µM (inactive)
- GI50 (SNB-75): 12.9 µM (inactive)
- GI50 (SR): > 100 µM (inactive)
- GI50 (SW-620): > 100 µM (inactive)
- GI50 (T47D): > 100 µM (inactive)
- GI50 (TK-10): > 100 µM (inactive)
- GI50 (U-251): > 100 µM (inactive)
- GI50 (UACC-257): > 100 µM (inactive)
- GI50 (UACC-62): > 100 µM (inactive)
- GI50 (UO-31): > 100 µM (inactive)

Compound: c1ccc2c3c(ccc2c1)CSCc1ccc2ccccc2c1-3
- GI50 (786-0): > 100 µM (inactive)
- GI50 (A498): > 100 µM (inactive)
- GI50 (A549): > 100 µM (inactive)
- GI50 (ACHN): > 100 µM (inactive)
- GI50 (BT-549): > 100 µM (inactive)
- GI50 (CAKI-1): > 100 µM (inactive)
- GI50 (CCRF-CEM): > 100 µM (inactive)
- GI50 (COLO 205): > 100 µM (inactive)
- GI50 (DU-145): > 100 µM (inactive)
- GI50 (EKVX): > 100 µM (inactive)
- GI50 (HCC 2998): > 100 µM (inactive)
- GI50 (HCT-116): > 100 µM (inactive)
- GI50 (HCT-15): > 100 µM
- GI50 (HL-60): > 10 µM (inactive)
- GI50 (HOP-62): > 100 µM (inactive)
- GI50 (HOP-92): 22.2 µM (inactive)
- GI50 (HT-29): > 100 µM (inactive)
- GI50 (Hs-578T): > 100 µM (inactive)
- GI50 (IGROV-1): > 100 µM (inactive)
- GI50 (K562): > 100 µM (inactive)
- GI50 (KM12): > 100 µM (inactive)
- GI50 (LOX IMVI): > 100 µM (inactive)
- GI50 (M14): > 100 µM (inactive)
- GI50 (MCF7): > 100 µM (inactive)
- GI50 (MDA-MB-231): > 100 µM (inactive)
- GI50 (MDA-MB-435): > 100 µM (inactive)
- GI50 (MDA-N): > 100 µM (inactive)
- GI50 (MOLT-4): 36.6 µM (inactive)
- GI50 (Malme-3M): > 100 µM (inactive)
- GI50 (NCI-H23): > 100 µM (inactive)
- GI50 (NCI-H522): > 100 µM (inactive)
- GI50 (NCI/ADR-RES): > 100 µM (inactive)
- GI50 (OVCAR-3): > 100 µM (inactive)
- GI50 (OVCAR-4): 26.8 µM (inactive)
- GI50 (OVCAR-5): > 100 µM (inactive)
- GI50 (OVCAR-8): > 100 µM (inactive)
- GI50 (PC-3): > 100 µM (inactive)
- GI50 (RPMI-8226): > 100 µM (inactive)
- GI50 (RXF 393): > 100 µM (inactive)
- GI50 (SF-268): > 100 µM (inactive)
- GI50 (SF-295): > 100 µM (inactive)
- GI50 (SF-539): 54.1 µM (inactive)
- GI50 (SK-MEL-28): > 100 µM (inactive)
- GI50 (SK-MEL-2): > 100 µM (inactive)
- GI50 (SK-MEL-5): > 100 µM (inactive)
- GI50 (SN12C): > 100 µM (inactive)
- GI50 (SNB-19): > 100 µM (inactive)
- GI50 (SNB-75): > 100 µM (inactive)
- GI50 (SR): 33 µM (inactive)
- GI50 (T47D): > 100 µM (inactive)
- GI50 (TK-10): > 100 µM (inactive)
- GI50 (U-251): > 100 µM (inactive)
- GI50 (UACC-257): 43.5 µM (inactive)
- GI50 (UACC-62): > 100 µM (inactive)
- GI50 (UO-31): > 100 µM (inactive)
